Test results reported in EP0519427A2, “N-substituted-3-iodopropiolamide, production and use thereof” (priority 1991, dated 1992).

Columns and labels:
wood rot fungi = experiment: Preserving activity for wood preservatives, overall statement for both fungi; assay type: cell-based, Tyromyces palustris, Coriolus versicolor; conditions: summary of Table 2
Experimental: (§1) This test was conducted according to Specification No.1 of Japan Wood Preserving Association, enacted in 1979, amended in 1989 and titled "Test methods of preserving activity for wood preservatives used in the coating, spraying and dipping treatment".
(§2) • ① Tyromyces palustris (Ber. et Curt.) Murr., FFPRI 0507 --"Ouzuratake" • ② Coriolus versicolor(L. ex Fr.) Quélet, FFPRI 1030 --"Kawaratake"
(§3) These two fungi are classified as wood rot fungi.
(§4) Culture media comprised culture jars (cylindrical jars of bottom diameter 8-9 cm, opening diameter 6-7 cm and height 15-18 cm), in which quartz sand of 250 g (the size of which corresponds to 20-30 mesh) was put first, and then the solution of 70 ml containing 2.0 % malt extracts and 1.0 % peptone was introduced, over which chips of the beech or other broadleaf tree were spread at about 2 mm thickness, and then sterilized at 120 °C for 30 minutes in the wet heated sterilizer.
(§5) Fungi were cultured at 26 ± 2 °C with shaking using the culture solution of 2.0 % malt extracts and 1.0 % peptone. After sufficient breeding was obtained, the fungi solution of about 3 ml was spread all over the culture medium, and then the fungi were cultured at 26 ± 2 °C with the relative humidity of over 70 %. After 10-15 days when the fungi layer sufficiently covered the culture medium, the fungi were served for the tests.
(§6) Wood specimens were the sapwood of intact cedar and beech, the dimension of which was 5 mm thick, 20 mm wide and 40 mm long. The grain face was of 20 mm width and 40 mm length. The side faces were treated with cold-setting epoxy resin.
(§7) The antimicrobial operation was performed with specifying types of fungi for corresponding type of trees. The combinations were as follows: Cedar----Tyromyces palustris ("Ouzuratake") Beech----Coriolus versicolor ("Kawaratake")
(§8) The test specimens were of two types, treated and untreated specimens, respectively.
(§9) The treated specimens referred to the wood specimens coated by brushing, spraying or dipping with wood preservatives. The amount of applied preservatives was 110 ± 10 g/m².
(§10) The amount of applied preservatives for each test specimen was calculated by the following equation:
(§11) The amount of applied preservatives (g/m²)=(W₁-W₂)/A wherein W₁ : weight of the test specimen after absorption(g), W₂ : weight of the test specimen before absorption(g) and A: surface area of test specimen except both butt surfaces (m²)
(§12) 2-7-1 The test specimens prepared in the previous section were dried at 60 ± 2 °C with a recirculating dryer for 48 hours, and were allowed to stand in a desiccator for about 30 minutes, and then the weight (W₃) was measured to an accuracy of 0.01 g.
(§13) 2-7-2 Three of each treated and untreated specimens were assembled in the Teflon casing. After sterilizing, the two assemblies were put on their 40 × 5 mm face on the fungi layer in the separate jar. They were kept at 26 ± 2 °C under the relative humidity of over 70 % for eight weeks.
(§14) 2-7-3 After the eight weeks had elapsed, the test specimens were taken out, and mycelia and other attachments of them were removed neatly. After air-drying for 24 hours, the test specimens were dried at 60 ± 2 °C in a recirculating dryer for 48 hours, and were allowed to stand in a desiccator for about 30 minutes, and then the weight (W₄) was measured to an accuracy of 0.01 g.
(§15) The test results were presented by the ratio of average weight loss of test specimens due to antimicrobial operation. The standard deviation and coefficient of variation were also determined. The ratio of weight loss for each test specimen was calculated by the following equation, and its average was also determined: The ratio of weight loss(%) = (W₃ - W₄) / W₃ × 100 [formula] . Lower value of the ratio of weight loss corresponds to higher wood preserving activity. […]

[1] = tested on: Coriolus versicolor(L. ex Fr.) Quélet, FFPRI 1030; experiment: Preserving activity for wood preservatives (weight loss of treated wood); assay type: cell-based; conditions: beech sapwood specimens, 110 ± 10 g/m² preservative applied (0.5% xylene solution per table note), eight weeks at 26 ± 2 °C; lower = higher preserving activity
Experimental: as §1, §2, §3, §4, §5, §6, §7, §8, §9, §10, §11, §12, §13, §14, §15

[2] = tested on: Tyromyces palustris (Ber. et Curt.) Murr., FFPRI 0507; experiment: as above; assay type: cell-based; conditions: cedar sapwood specimens, 110 ± 10 g/m² preservative applied (0.5% xylene solution per table note), eight weeks at 26 ± 2 °C; lower = higher preserving activity
Experimental: as §1, §2, §3, §4, §5, §6, §7, §8, §9, §10, §11, §12, §13, §14, §15

SMILES	wood preserving activity (statement in words) (wood rot fungi)	Ratio of weight loss (%), C. versicolor [1]	Ratio of weight loss (%), T. palustris [2]
CCCCCCCCCCNC(=O)C#CI [Example 2, N-(n-Decyl)-3-iodopropiolamide]	excellent wood preserving activity	15.9%	0.2%
CCCCCNC(=O)C#CI [Example 7, N-(n-Pentyl)-3-iodopropiolamide]	excellent wood preserving activity	3.1%	2.2%
CCC(C)NC(=O)C#CI (stereo not drawn) [Example 5, N-(sec-Butyl)-3-iodopropiolamide]	excellent wood preserving activity	7.2%	2.5%
CCCCCCCNC(=O)C#CI [Example 9, N-(n-Heptyl)-3-iodopropiolamide]	–	12.0%	3.3%
CC(C)(C)NC(=O)C#CI [Example 1, N-(tert-Butyl)-3-iodopropiolamide]	excellent wood preserving activity	11.9%	2.4%
CCCCNC(=O)C#CI [Example 4, N-(n-Butyl)-3-iodopropiolamide]	excellent wood preserving activity	1.6%	0.0%
CC(C)CNC(=O)C#CI [Example 6, N-Isobutyl-3-iodopropiolamide]	excellent wood preserving activity	1.5%	0.0%
CCCCCCCCCNC(=O)C#CI [Example 11, N-(n-Nonyl)-3-iodopropiolamide]	–	14.2%	5.8%
CCCCCCCCNC(=O)C#CI [Example 10, N-(n-Octyl)-3-iodopropiolamide]	–	8.4%	5.0%
CCCCCCNC(=O)C#CI [Example 8, N-(n-Hexyl)-3-iodopropiolamide]	excellent wood preserving activity	1.7%	1.3%
